# Measured values from article PMC3140574 (Journal of immunology (Baltimore, Md. : 1950), 2011).
# Where a SMILES comes first, the peptide text is derived from it.
# What was measured:
# HLA-A*0201 = HLA-A*0201 (Homo sapiens, UniProt P04439, D140Y/D185E/D98H/E176V/E277Q/G131W/G231S/I119V/I121R/I166T/I218V/L300P/L318F/N151K/N90K/P208A/P217A/Q86G/Q94H/R138H/R169H/T345S); test: HLA-A*0201-peptide binding
# [1] = system: splenocytes of ML1419c p113-121 immunized HLA-A2tg mice; format: cell-based
Molecule,IC50 (HLA-A*0201),IFN-γ [1],IL-6 [1],IP-10 [1],MIG [1],MIP-β [1],TNF-α [1],VEGF [1]
"CC(C)C[C@H](NC(=O)[C@@H](NC(=O)[C@@H](NC(=O)CNC(=O)[C@H](CC(=O)O)NC(=O)[C@H](CC(C)C)NC(=O)[C@@H](N)CCCNC(=N)N)[C@@H](C)O)[C@@H](C)O)C(=O)N[C@@H](CCC(=O)O)C(=O)N[C@H](C(=O)O)C(C)C [ML1419c p113-121, RLDGTTLEV] (H-RLDGTTLEV-OH)",35 nM,–,–,–,–,–,–,–
concanavalin A [conA],–,5112 pg/mL,299 pg/mL,251 pg/mL,533 pg/mL,787 pg/mL,33 pg/mL,83 pg/mL
